Where two headings read alike, the source gives them in different places. Where a SMILES comes first, the peptide text is derived from it. Where no end group is shown, it is not given here. The star is where a group is joined. Azidoacetyl = [N-]=[N+]=NCC(=O)*; Cbz = O=C(OCc1ccccc1)*
Key:
[1] = system: HEK293 PALB2 IKZF3d/IKZF3d knock-in cells; assay: Cell viability assay (WST-1); format: cell-based; conditions: homozygous KI cells pretreated with 10 μM Pom, then DNA damaging drug, 5 days cotreatment, WST1
[2] = molecular target: T1, PALB2 C-terminal domain (PALB2C) (Homo sapiens, UniProt Q86YC2); assay: Direct fluorescence polarization of labelled BRCA2 peptides; format: binding; conditions: for Kd: direct FP, PALB2C source Hi5 insect cells, labelled peptide 10 nM, PALB2C serially diluted from 4.4 μM, 20 mM HEPES, 100 mM NaCl, 1 mM DTT, 1 mM EDTA, 0.01% IGEPAL CA-630, 20 min RT, read at 25 °C, N = 3-20
T1 construct: C terminal part of Palb2 (aa 835-1186); His tag (C); 3C protease site; host or cells: Hi5 insect cells (virus produced and amplified in Sf9)
T1 sequence (Q86YC2 835-1186): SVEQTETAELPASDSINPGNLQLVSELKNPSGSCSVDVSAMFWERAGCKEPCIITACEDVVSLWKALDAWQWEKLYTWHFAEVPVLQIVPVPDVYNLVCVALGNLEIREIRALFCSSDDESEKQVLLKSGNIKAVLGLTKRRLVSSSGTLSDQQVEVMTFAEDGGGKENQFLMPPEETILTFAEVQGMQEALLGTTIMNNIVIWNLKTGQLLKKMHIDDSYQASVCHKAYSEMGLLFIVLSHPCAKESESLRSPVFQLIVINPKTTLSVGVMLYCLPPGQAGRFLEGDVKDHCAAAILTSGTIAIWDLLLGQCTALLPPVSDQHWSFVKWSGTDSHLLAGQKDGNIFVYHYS
Procedure: FLU-GG-[…] (Peptide Protein Research Ltd., Fareham, UK) was dissolved in DMSO at 1 μM. PALB2C (22 μM, in 20 mM HEPES, 100 mM NaCl, 1 mM DTT, 1 mM EDTA) was diluted to a final concentration of 4.4 μM (same buffer supplemented with 0.01% (v/v) IGEPAL CA-630). The protein was serially diluted and fluorescent peptide was added to a final concentration of 10 nM. After incubation in the dark at RT for 20 min, fluorescence polarization was measured (ex: 485:20, em: 535:25, 25 °C). KD was obtained by fitting the signal to a binding model using the python lmfit package with the nonlinear least-squares method.[51]
9 Fluorescent polarization assay
9.1.1 Insect cell expression
PALB2-C was synthesized by the EPFL protein production facility0F1. In short; the virus was produced and amplified in Sf9 cells. C-terminal His-Tagged 3C-PALB2C was grown in 5 L o f Hi5 cells and harvested after 3 days. Pellet was frozen, defrosted and resuspended in 200 mL of wash buffer, supplemented to 5 % glycerol (v/v), 50 μL benzonase, and 2 protease inhibitor tablets. The mixture was clarified with a French press for a total of 4 cycles and centrifu g e d a t 32 kcfg for 1 h. The supernatant was decanted, supplemented with imidazole to a final concentration of 25 mM and added to 5 mL of Ni-NTA bead s. The b ead s were in cub ated with […]
The beads were washed with 40 column volumes (CV) with wash buffer (500 mM NaCl, 20 mM HEPES, pH 7.5), 10 CV with wash buffer and 50 mM imid az o le . The protein was eluted with 6 CV of elution buffer (500 mM NaCl, 20 mM HEPES, 300 mM imidazole, pH 7.5) to a total volume of 38 mL. The elute was concentrated to 1 mL and injected onto a pre-equilibrated Superdex 200 10/300GL column (250 mM NaCl, 10 mM HEPES, 5 mM DTT, 1 mM EDTA, pH […]
A total volume of 950 μL PALBC was received at a concentration of 1 mg/mL (equals 22 μM) in the superdex buffer. This corresponds to a yield of 0.19 mg/L of Hi5 cells. […]
Concentration was measured on a NanoDrop 2000. The concentration was determined to be […]

PALB2-IKZF3d = assay: IMiD-induced degradation of PALB2-IKZF3d (Western blot); format: cell-based; conditions: for rescue of pomalidomide-induced PALB2-IKZF3d degradation: 1 μM inhibitor 6 h, then 10 μM pomalidomide 18 h
Procedure: 5.1 Degradation of PALB2 and UPP rescue assays
To show PALB2 deegradation, cells were treated with pomalidomide at the indicated concentrations for 24 h. The cells were subsequently lysed and prepared for gel electrophoresis and western blotting.
To show UPP rescue, MG132 and MLN4924 were used to inhibit the ubiquitination-proteasome degradation pathway. The cells were first treated with 1 μM MG132 or 1 μM MLN4924. After 6 h, pomalidomide was added to a final concentration of 10 μM. After 18 h, the cells were collected and lysed.
To show PALB2 recovery, the cells were first treated with 10 μM pomalidomide or 10 μM iberdomide for 24 h. After that, the culture medium was removed, the cells were washed three times with fresh culture medium and then cultured with culture medium without IMiDs.
The cells were then collected an d l yse d . […]
Figure S7. A). Degradation of endogenous PALB2.
B). PALB2 de gra dation rescue expe ri ment. The cells in the degradation rescue group w ere first t reated with 1 μ M MG132 and 1 μ M M LN49 24 for 6 hou rs and then t reated with 10 μ M pomalidomide for 1 8 hours. Cell samples were collected for WB analysis. The asterisk represents a nonspecific band of PALB 2 with t his antibody. […]

PALB2C = molecular target: T2, PALB2C (Homo sapiens, UniProt Q86YC2); assay: Displacement polarization assay (competition with FLU-GG-[…]); conditions: dark peptide 10 μM, probe FLU-GG-[…] 10 nM, 20 min RT, 25 °C, competitive binding fit
T2 construct: C terminal part of Palb2 (aa 835-1186); His tag (C); 3C protease site; host or cells: Hi5 insect cells (virus produced and amplified in Sf9)
T2 sequence (Q86YC2 835-1186): T1 sequence (Q86YC2 835-1186)
Procedure: To the mixture above, the dark peptide was added at a final concentration of 10 μM (1000 eq. excess). After incubation in the dark at RT for 20 min, fluorescence polarization was measured (ex: 485:20, em: 535:25, 25 °C).KD was obtained by fitting the signal to a competitive binding model described previously[52] by using the python lmfit package with the nonlinear least-squares method.
9.3 Displacement polarization assay
The displacement assay was set up similarly to the direct polarization assay. In addition to the
DMSO) was added to a final concentration of 20 μM.
μM and 10 nM for the peptide and the probe, respectively.
The resulting binding curve was fitted using the python lmfit package3 to a linearly transformed competitive KD binding model described previously4 using the non- linear least
𝑚𝑚 = 𝐾𝐾D, Probe + 𝐾𝐾D, Pep + 𝑐𝑐Probe + 𝑐𝑐Pep − 𝑐𝑐Prot
𝑛𝑛 = 𝐾𝐾D, Pep ⋅ (𝑐𝑐Probe − 𝑐𝑐Prot ) + 𝐾𝐾D, Probe ⋅ ?𝑐𝑐Pep − 𝑐𝑐Prot ? + 𝐾𝐾D, Pep ⋅ 𝐾𝐾D, Probe 𝑜𝑜 = −𝐾𝐾D, Pep ⋅ 𝐾𝐾D, Pro be ⋅ 𝑐𝑐Prot
𝜃𝜃 = cos −1 ?−2𝑚𝑚 3 + 9𝑚𝑚𝑛𝑛 − 27𝑜𝑜 ?
𝑟𝑟 = 2 ⋅ ?𝑚𝑚 2 − 3𝑛𝑛 ⋅ cos 𝜃𝜃3 − 𝑚𝑚
𝑓𝑓 = 𝑐𝑐Probe ⋅ 𝑟𝑟3 ⋅ 𝐾𝐾D, Probe + 𝑟𝑟

[3] = truncated BRCA2 peptides, PALB2C source Hi5 (Figure 2B), N = 1-5, read-out: KD (other peptides)
[4] = alanine scan of BRCA2 21-35, N = 1-4, read-out: KD (alanine scan)

Which “synergistic toxicity with PALB2 depletion” value [1] does the source give for `CC[C@@]1(O)C(=O)OCc2c1cc1n(c2=O)Cc2cc3ccccc3nc2-1` [CPT, camptothecin] here?
Its value is “noticeable synergistic toxicity”.

With `CC[C@H](C)[C@H](NC(=O)[C@H](CCC(=O)O)NC(=O)[C@H](Cc1ccccc1)NC(=O)[C@H](Cc1ccccc1)NC(=O)[C@@H](NC(=O)CNC(=O)CNC(=O)c1ccc2c(c1)C(=O)OC21c2ccc(O)cc2Oc2cc(O)ccc21)[C@@H](C)O)C(=O)N[C@@H](Cc1ccccc1)C(=O)N[C@@H](CCCCN)C(=O)N[C@H](C(=O)N[C@@H](CCCNC(=N)N)C(=O)N[C@@H](CS)C(=O)N[C@@H](CC(N)=O)C(=O)N[C@@H](CCCCN)C(=O)N[C@@H](C)C(=O)N[C@@H](CC(=O)O)C(=O)N[C@@H](CC(C)C)C(=O)NCC(=O)N1CCC[C@H]1C(=O)N[C@H](C(=O)N[C@@H](CO)C(=O)N[C@@H](CC(C)C)C(=O)N[C@@H](CC(N)=O)C(=O)N[C@@H](Cc1c[nH]c2ccccc12)C(=O)N[C@@H](Cc1ccccc1)C(=O)N[C@@H](CCC(=O)O)C(=O)N[C@@H](CCC(=O)O)C(=O)N[C@@H](CC(C)C)C(=O)N[C@@H](CO)C(=O)N[C@@H](CO)C(=O)N[C@@H](CCC(=O)O)C(=O)N[C@@H](C)C(N)=O)[C@@H](C)CC)[C@@H](C)O` [FAM-GG-BRCA(10-39)] (HELM PEPTIDE1{[O=C1OC2(c3ccc(O)cc3Oc3cc(O)ccc32)c2ccc(C(=O)[*:2])cc21].G.G.T.F.F.E.I.F.K.T.R.C.N.K.A.D.L.G.P.I.S.L.N.W.F.E.E.L.S.S.E.A.[am]}$$$$V2.0; N-terminus and C-terminus assumed) as the compound, how does the “gain in binding affinity from residues 12-21” value ([2]; FAM-GG-BRCA(10-39) compared with FAM-GG-BRCA(21-39)) read?
Its value is 6–10 fold.

Which “recovery of PALB2 levels after wash out” value (PALB2-IKZF3d; 10 μM IMiD for 24 h, then medium removed and cells washed, knock-in cells) does the source give for `O=C1CC[C@H](N2Cc3c(OCc4ccc(CN5CCOCC5)cc4)cccc3C2=O)C(=O)N1` [Iber, iberdomide] here?
Its value is “PALB2 levels recover after 24 h”.

What about the “degradation of PALB2 in IKZF3d knock-in cells” value (PALB2-IKZF3d; homozygous IKZF3d knock-in HEK293 cells, 24 h treatment) of the same compound?
The value was “degradation could also be induced”.

With `CC(C)C[C@@H](C=O)NC(=O)[C@H](CC(C)C)NC(=O)[C@H](CC(C)C)NC(=O)OCc1ccccc1` [MG132] (Cbz-Leu-Leu-Leu-aldehyde) as the compound, how does the “rescue of pomalidomide-induced PALB2-IKZF3d degradation” value (PALB2-IKZF3d) read?
Its value is “prevented the pomalidomide-induced degradation of PALB2-IKZF 3d”.

With `NS(=O)(=O)OC[C@@H]1C[C@@H](n2ccc3c(N[C@H]4CCc5ccccc54)ncnc32)C[C@@H]1O` [MLN4924] as the compound, how does the “rescue of pomalidomide-induced PALB2-IKZF3d degradation” value (PALB2-IKZF3d) read?
Its value is “prevented the pomalidomide-induced degradation of PALB2-IKZF 3d”.

`O=C(c1cc(Cc2n[nH]c(=O)c3ccccc23)ccc1F)N1CCN(C(=O)C2CC2)CC1` [olaparib] was tested. Which “synergistic toxicity with PALB2 depletion” value [1] did it give?
Its value is “noticeable synergistic toxicity”.

How did the Kd [2] turn out when “Cy5-DBCO-GG-BRCA(21-39): Cy5-modified peptide: P38 modified with 2-azidoacetic acid and Cy5-DBCO ({Cy5‑DBCO-Azidoacetyl}-GGKADLGPISLNWFEELSSEA; UniProt P51587 21-39, looked up, fragment)” was run?
Its Kd is 64 nM.

With “FLU-GG-KADLGPISLNWFEELSSEA [FAM-GG-BRCA(21-39), fluorescein-labelled BRCA2(21-39) peptide, Peptide Protein Research Ltd; FP probe]” as the compound, how does the Kd [2] read?
The Kd was 630 nM.

How did the Kd (PALB2C; [3]) turn out when H-DLGPISLNWFEEL-NH2 [Peptide P8] was run?
The Kd was 7.9 µM.

For H-GPISLNWFE-NH2 [Peptide P12], which Kd (PALB2C; [3]) is on record?
The Kd was 17.9 µM.

With H-GPISLNWFEEL-NH2 [Peptide P7] as the compound, how does the Kd (PALB2C; [3]) read?
Its Kd is 82.2 µM.

For H-KAALGPISLNWFEEL-NH2 [Peptide P29], which Kd (PALB2C; [4]) is on record?
The Kd was 4.6 µM.

For H-KADLGAISLNWFEEL-NH2 [Peptide P32], which Kd (PALB2C; [4]) is on record?
The Kd was 3.6 µM.

H-KADLGPASLNWFEEL-NH2 [Peptide P33] was tested. Which Kd (PALB2C; [4]) did it give?
The Kd was 5.3 µM.

For H-KADLGPIALNWFEEL-NH2 [Peptide P34], which Kd (PALB2C; [4]) is on record?
The Kd was 4.9 µM.

For H-KADLGPISANWFEEL-NH2 [Peptide P35], which Kd (PALB2C; [4]) is on record?
The Kd was 6.7 µM.

H-KADLGPISLAWFEEL-NH2 [Peptide P36] was tested. Which Kd (PALB2C; [4]) did it give?
Its Kd is 4 µM.

H-KADLGPISLNAFEEL-NH2 [Peptide P25] was tested. Which Kd (PALB2C; [4]) did it give?
Its Kd is 5.5 µM.

H-KADLGPISLNWAEEL-NH2 [Peptide P26] was tested. Which Kd (PALB2C; [4]) did it give?
Its Kd is 10.1 µM.

How did the Kd (PALB2C; [4]) turn out when H-KADLGPISLNWFAEL-NH2 [Peptide P27] was run?
Its Kd is 5.1 µM.

Which Kd (PALB2C; [3]) does the source give for H-KADLGPISLNWFE-NH2 [Peptide P14] here?
The Kd was 25.2 µM.

Which Kd (PALB2C; [4]) does the source give for “H-KADLGPISLNWFEAL-NH2 [Peptide P28, H-KADLGPISLNWFEAL-NH2]” here?
The Kd was 7 µM.

How did the Kd (PALB2C; [3]) turn out when H-KADLGPISLNWFEEL-NH2 [Peptide P9] was run?
Its Kd is 5 µM.
